Assays:
Caenorhabditis elegans = test: In vitro nematode test (inhibition of reproduction); format: cell-based; details: 168 h; concentration at which reproduction is prevented; 7 days at 22°C; E.coli suspension in M9 buffer; read-out: Minimale effektive Dosis
Experimental: 10-^4 g Wirkstoff werden in 1 ml Wasser oder 0,1 ml Dimethylsulfoxid (DMSO) gelöst. Diese Lösung wurde auf eine Replica-Platte gegeben. Dazu wurden 2 ml einer E.coli-Suspension gegeben, zu der man 10-20 weibliche Tiere oder Larven von Caenorhabditis elegans in 0,5 ml sterile M9 Pufferlösung gegeben hat. Die E.coli-Suspension wurde hergestellt indem man 300 ml einer Ubernachtkultur eines Uracil-bedürftigen E.coli-Stammes mit 1,8 1 steriler M9 Pufferlösung versetzte.
Der Versuchsansatz wurde 7 Tage bei 22°C inkubiert und danach ausgewertet. Es wurde bewertet inwieweit der Wirkstoff die Vermehrung beeinträchtigt und die Konzentration angegeben bei der die Vermehrung verhindert wird. Dabei wurden folgende Ergebnisse erhalten: • In vitro Nematodentest

Strongyloides ratti = test: In vivo nematode test in experimentally infected rats; details: rats (Ratten), oral by gavage on three consecutive days from day 7 after infection, killed day 13, at least 95 % of parasites killed, read-out: minimale effektive Dosis
Excerpt: (§1) Experimentell mit Strongyloides ratti infizierte Ratten werden 7 Tage nach der Infektion an drei aufeinanderfolgenden Tagen oral mittels Schlundsonde behandelt. Die Tiere werden 13 Tage nach der Infektion getötet und die Zahl der Parasiten bestimmt. Es wird die Wirkstoffkonzentration angegeben, bei der mindestens 95 % der Parasiten abgetötet wurden (minimale effektive Dosis): […]

Heterakis spumora = test: In vivo nematode test in experimentally infected mice; details: Mus musculus; mice (Mäuse); oral by gavage on four consecutive days from day 32 after infection; killed day 39; at least 95 % of parasites killed; read-out: minimale effektive Dosis
Excerpt: as §1, with “Heterakis spumora” for “Strongyloides ratti”, “Mäuse” for “Ratten”, “32” for “7”, “vier” for “drei”, “39” for “13”, “angegeben” for “angegeben,”

Hymenolepis nana = test: as above; details: Rodentolepis nana; mice (Mäuse); oral by gavage on four consecutive days from day 10 after infection; killed day 17; at least 95 % of parasites killed; read-out: minimale effektive Dosis
Excerpt: Experimeltell mit Hymenolepis nana infizierte Mäuse werden 10 Tage nach der Infektion an vier aufeinanderfolgenden Tagen oral mittels Schlundsonde behandelt. Die Tiere werden 17 Tage nach Infektion getötet und die Zahl der Parasiten bestimmt. Es wird die Wirkstoffkonzentration angegeben, bei der mindestens 95 % der Parasiten abgetötet wurden (minimale effektive Dosis): […]

In the case of CN1C(=O)C(C(=O)Nc2cccc(C(F)(F)F)c2)C(=O)N(C)P1(=O)Oc1ccc(Cl)cc1 (stereo not shown) [Beispiel 1], the minimal effective concentration (Caenorhabditis elegans) is reported as 10 µg/mL.

CC(C)N1C(=O)C(C(=O)Nc2cccc(Cl)c2)C(=O)N(C(C)C)P1(=O)Oc1cccc(Cl)c1 (stereo not shown) [Beispiel 2] gave a minimal effective concentration (Caenorhabditis elegans) of 100 µg/mL.

For CC(C)N1C(=O)C(C(=O)Nc2cccc(C(F)(F)F)c2)C(=O)N(C(C)C)P1(=O)Oc1cccc(Cl)c1 (stereo not shown) [Beispiel 3], the minimal effective concentration (Caenorhabditis elegans) was 100 µg/mL.

CN1C(=O)C(C(=O)Nc2ccc(C(F)(F)F)cc2)C(=O)N(C)P1(=O)Oc1ccc(Cl)cc1 (stereo not shown) [Beispiel 6] was tested, and the minimal effective concentration (Caenorhabditis elegans) was 1 µg/mL.

CN1C(=O)C(C(=O)Nc2ccc(C(F)(F)F)cc2)C(=O)N(C)P1(=O)Oc1ccccc1 (stereo not shown) [Beispiel 8] showed a minimal effective dose (Strongyloides ratti) of 25 mg/kg and a minimal effective concentration (Caenorhabditis elegans) of 10 µg/mL.

CN1C(=O)C(C(=O)Nc2ccc(Cl)cc2)C(=O)N(C)P1(=O)Oc1ccc(Cl)cc1 (stereo not shown) [Beispiel 10] gave a minimal effective concentration (Caenorhabditis elegans) of 1 µg/mL.

For CN1C(=O)C(C(=O)Nc2cccc(Cl)c2)C(=O)N(C)P1(=O)Oc1cccc(Cl)c1 (stereo not shown) [Beispiel 11], the minimal effective dose (Strongyloides ratti) was 10 mg/kg and the minimal effective concentration (Caenorhabditis elegans) was 1 µg/mL.

Work on CN1C(=O)C(C(=O)Nc2cccc(Cl)c2)C(=O)N(C)P1(=O)Oc1ccc(Cl)cc1 (stereo not shown) [Beispiel 12] yielded a minimal effective concentration (Caenorhabditis elegans) of 100 µg/mL.

Work on O=C(Nc1ccc(Cl)c(Cl)c1)C1C(=O)N(c2ccccc2)P(=O)(Oc2ccc(Cl)cc2)N(c2ccccc2)C1=O (stereo not shown) [Beispiel 13] yielded a minimal effective concentration (Caenorhabditis elegans) of 10 µg/mL.

With O=C(Nc1ccc(Cl)c(Cl)c1)C1C(=O)N(c2ccccc2)P(=O)(Oc2ccccc2)N(c2ccccc2)C1=O (stereo not shown) [Beispiel 14] the minimal effective concentration (Caenorhabditis elegans) was 100 µg/mL.

For CC(C)N1C(=O)C(C(=O)Nc2ccc(C(F)(F)F)cc2)C(=O)N(C)P1(=O)Oc1cccc(Cl)c1 (stereo not shown) [Beispiel 17], the minimal effective concentration (Caenorhabditis elegans) was 10 µg/mL.

With CC(C)N1C(=O)C(C(=O)Nc2cccc(Cl)c2)C(=O)N(C)P1(=O)Oc1cccc(Cl)c1 (stereo not shown) [Beispiel 18] the minimal effective concentration (Caenorhabditis elegans) was 10 µg/mL.

In the case of CCN1C(=O)C(C(=O)Nc2cccc(C(F)(F)F)c2)C(=O)N(C)P1(=O)Oc1cccc(Cl)c1 (stereo not shown) [Beispiel 20], the minimal effective dose (Strongyloides ratti) is reported as 250 mg/kg and the minimal effective concentration (Caenorhabditis elegans) is reported as 10 µg/mL.

In the case of CC(C)N1C(=O)C(C(=O)Nc2cccc(C(F)(F)F)c2)C(=O)N(C)P1(=O)Oc1cccc(Cl)c1 (stereo not shown) [Beispiel 22], the minimal effective dose (Heterakis spumora) is reported as 250 mg/kg, the minimal effective dose (Hymenolepis nana) is reported as 250 mg/kg and the minimal effective concentration (Caenorhabditis elegans) is reported as 10 µg/mL.

Compound Cc1cccc(OP2(=O)N(C)C(=O)C(C(=O)Nc3cccc(C(F)(F)F)c3)C(=O)N2C(C)C)c1 (stereo not shown) [Beispiel 27] has a minimal effective concentration (Caenorhabditis elegans) of 10 µg/mL.

Cc1cccc(OP2(=O)N(C)C(=O)C(C(=O)Nc3cccc(Cl)c3)C(=O)N2C(C)C)c1 (stereo not shown) [Beispiel 28] was tested, and the minimal effective concentration (Caenorhabditis elegans) was 100 µg/mL.

Work on Cc1cccc(OP2(=O)NC(=O)C(C(=O)Nc3cccc(C(F)(F)F)c3)C(=O)N2C)c1 (stereo not shown) [Beispiel 34] yielded a minimal effective concentration (Caenorhabditis elegans) of 100 µg/mL.

With Cc1cccc(OP2(=O)N(C)C(=O)C(C(=O)Nc3ccc(Cl)c(Cl)c3)C(=O)N2C(C)C)c1 (stereo not shown) [Beispiel 35] the minimal effective concentration (Caenorhabditis elegans) was 10 µg/mL.

With CN1C(=O)C(C(=O)Nc2cccc(C(F)(F)F)c2)C(=O)N(C)P1(=O)Oc1cccc(Cl)c1 (stereo not shown) [Beispiel 36] the minimal effective concentration (Caenorhabditis elegans) was 10 µg/mL.

In the case of CN1C(=O)C(C(=O)Nc2ccc(Cl)c(Cl)c2)C(=O)N(c2ccccc2)P1(=O)Oc1ccc(Cl)cc1 (stereo not shown) [Beispiel 37], the minimal effective concentration (Caenorhabditis elegans) is reported as 10 µg/mL.

Reference: patent EP0215300A2, “Use of diazaphosphorines for combating endoparasites” (BAYER AG, priority 1985, dated 1987)
